According to ChEMBL document CHEMBL5143613, “Discovery of 6,7-dihydro-5H-pyrrolo[3,4-d] pyrimidine derivatives as a new class of ATR inhibitors” (Bioorg Med Chem Lett, 2022):
Values belong to the compound of their own block, whether it stands above or below them.

What was measured:
[1] = Inhibition of recombinant full-length human ATR M211T mutant using GST-cMyc-p53 as substrate incubated for 40 mins by HTRF assay
A2780 [2] = experiment: Anti-tumor activity against human A2780 cells assessed as inhibition of cell viability incubated for 72 hrs by MTT assay; assay type: functional, cell-based; conditions: A2780, 72 h
MDA-MB-436 = experiment: Anti-tumor activity against human MDA-MB-436 cells assessed as inhibition of cell viability incubated for 72 hrs by MTT assay; assay type: functional, cell-based; conditions: MDA-MB-436, 72 h
MDA-MB-468 = experiment: Anti-tumor activity against human MDA-MB-468 cells assessed as inhibition of cell viability incubated for 72 hrs by MTT assay; assay type: functional, cell-based; conditions: MDA-MB-468, 72 h
LoVo = experiment: Anti-tumor activity against human LoVo cells assessed as inhibition of cell viability incubated for 72 hrs by MTT assay; assay type: functional, cell-based
SW-620 = experiment: Anti-tumor activity against human SW-620 cells assessed as inhibition of cell viability incubated for 72 hrs by MTT assay; assay type: functional, cell-based; conditions: SW-620, 72 h
Granta-519 = experiment: Anti-tumor activity against human Granta-519 cells assessed as inhibition of cell viability incubated for 72 hrs by MTT assay; assay type: functional, cell-based; conditions: Granta-519, 72 h
CWR22R = experiment: Anti-tumor activity against human 22Rv1 cells assessed as inhibition of cell viability incubated for 72 hrs by MTT assay; assay type: functional, cell-based; conditions: 22Rv1, 72 h
NCI-H23 = experiment: Anti-tumor activity against human NCI-H23 cells assessed as inhibition of cell viability incubated for 72 hrs by MTT assay; assay type: functional, cell-based; conditions: NCI-H23, 72 h
A2780 [3] = experiment: Inhibition of colony formation in human A2780 cells by crystal violet staining based analysis; assay type: functional, cell-based; conditions: dose 0.03-3 µM, DDE = dose-dependent effect
A2780 [4] = experiment: Anti-migration activity against human A2780 cells assessed as inhibition of cell migration at 0.1 to 1 uM by wound healing assay; assay type: functional, cell-based; conditions: dose 0.1-1 µM, time 24-48 hrs, TDE = time-dependent effect
A2780 [5] = experiment: Anti-migration activity against human A2780 cells assessed as inhibition of cell migration incubated for 24 to 48 hrs by wound healing assay; assay type: functional, cell-based; conditions: dose 0.1-1 µM, time 24-48 hrs, DDE = dose-dependent effect
[6] = molecular target: Serine/threonine-protein kinase ATR (Homo sapiens) (UniProt Q13535); experiment: Inhibition of ATR in HU-treated human A2780 cells assessed as inhibition of ATR phosphorylation by Western blot assay; assay type: cell-based; conditions: dose 0.03-10 µM, DDE = dose-dependent effect
Chain of Serine/threonine-protein kinase ATR (Homo sapiens) (Q13535 whole entry, looked up): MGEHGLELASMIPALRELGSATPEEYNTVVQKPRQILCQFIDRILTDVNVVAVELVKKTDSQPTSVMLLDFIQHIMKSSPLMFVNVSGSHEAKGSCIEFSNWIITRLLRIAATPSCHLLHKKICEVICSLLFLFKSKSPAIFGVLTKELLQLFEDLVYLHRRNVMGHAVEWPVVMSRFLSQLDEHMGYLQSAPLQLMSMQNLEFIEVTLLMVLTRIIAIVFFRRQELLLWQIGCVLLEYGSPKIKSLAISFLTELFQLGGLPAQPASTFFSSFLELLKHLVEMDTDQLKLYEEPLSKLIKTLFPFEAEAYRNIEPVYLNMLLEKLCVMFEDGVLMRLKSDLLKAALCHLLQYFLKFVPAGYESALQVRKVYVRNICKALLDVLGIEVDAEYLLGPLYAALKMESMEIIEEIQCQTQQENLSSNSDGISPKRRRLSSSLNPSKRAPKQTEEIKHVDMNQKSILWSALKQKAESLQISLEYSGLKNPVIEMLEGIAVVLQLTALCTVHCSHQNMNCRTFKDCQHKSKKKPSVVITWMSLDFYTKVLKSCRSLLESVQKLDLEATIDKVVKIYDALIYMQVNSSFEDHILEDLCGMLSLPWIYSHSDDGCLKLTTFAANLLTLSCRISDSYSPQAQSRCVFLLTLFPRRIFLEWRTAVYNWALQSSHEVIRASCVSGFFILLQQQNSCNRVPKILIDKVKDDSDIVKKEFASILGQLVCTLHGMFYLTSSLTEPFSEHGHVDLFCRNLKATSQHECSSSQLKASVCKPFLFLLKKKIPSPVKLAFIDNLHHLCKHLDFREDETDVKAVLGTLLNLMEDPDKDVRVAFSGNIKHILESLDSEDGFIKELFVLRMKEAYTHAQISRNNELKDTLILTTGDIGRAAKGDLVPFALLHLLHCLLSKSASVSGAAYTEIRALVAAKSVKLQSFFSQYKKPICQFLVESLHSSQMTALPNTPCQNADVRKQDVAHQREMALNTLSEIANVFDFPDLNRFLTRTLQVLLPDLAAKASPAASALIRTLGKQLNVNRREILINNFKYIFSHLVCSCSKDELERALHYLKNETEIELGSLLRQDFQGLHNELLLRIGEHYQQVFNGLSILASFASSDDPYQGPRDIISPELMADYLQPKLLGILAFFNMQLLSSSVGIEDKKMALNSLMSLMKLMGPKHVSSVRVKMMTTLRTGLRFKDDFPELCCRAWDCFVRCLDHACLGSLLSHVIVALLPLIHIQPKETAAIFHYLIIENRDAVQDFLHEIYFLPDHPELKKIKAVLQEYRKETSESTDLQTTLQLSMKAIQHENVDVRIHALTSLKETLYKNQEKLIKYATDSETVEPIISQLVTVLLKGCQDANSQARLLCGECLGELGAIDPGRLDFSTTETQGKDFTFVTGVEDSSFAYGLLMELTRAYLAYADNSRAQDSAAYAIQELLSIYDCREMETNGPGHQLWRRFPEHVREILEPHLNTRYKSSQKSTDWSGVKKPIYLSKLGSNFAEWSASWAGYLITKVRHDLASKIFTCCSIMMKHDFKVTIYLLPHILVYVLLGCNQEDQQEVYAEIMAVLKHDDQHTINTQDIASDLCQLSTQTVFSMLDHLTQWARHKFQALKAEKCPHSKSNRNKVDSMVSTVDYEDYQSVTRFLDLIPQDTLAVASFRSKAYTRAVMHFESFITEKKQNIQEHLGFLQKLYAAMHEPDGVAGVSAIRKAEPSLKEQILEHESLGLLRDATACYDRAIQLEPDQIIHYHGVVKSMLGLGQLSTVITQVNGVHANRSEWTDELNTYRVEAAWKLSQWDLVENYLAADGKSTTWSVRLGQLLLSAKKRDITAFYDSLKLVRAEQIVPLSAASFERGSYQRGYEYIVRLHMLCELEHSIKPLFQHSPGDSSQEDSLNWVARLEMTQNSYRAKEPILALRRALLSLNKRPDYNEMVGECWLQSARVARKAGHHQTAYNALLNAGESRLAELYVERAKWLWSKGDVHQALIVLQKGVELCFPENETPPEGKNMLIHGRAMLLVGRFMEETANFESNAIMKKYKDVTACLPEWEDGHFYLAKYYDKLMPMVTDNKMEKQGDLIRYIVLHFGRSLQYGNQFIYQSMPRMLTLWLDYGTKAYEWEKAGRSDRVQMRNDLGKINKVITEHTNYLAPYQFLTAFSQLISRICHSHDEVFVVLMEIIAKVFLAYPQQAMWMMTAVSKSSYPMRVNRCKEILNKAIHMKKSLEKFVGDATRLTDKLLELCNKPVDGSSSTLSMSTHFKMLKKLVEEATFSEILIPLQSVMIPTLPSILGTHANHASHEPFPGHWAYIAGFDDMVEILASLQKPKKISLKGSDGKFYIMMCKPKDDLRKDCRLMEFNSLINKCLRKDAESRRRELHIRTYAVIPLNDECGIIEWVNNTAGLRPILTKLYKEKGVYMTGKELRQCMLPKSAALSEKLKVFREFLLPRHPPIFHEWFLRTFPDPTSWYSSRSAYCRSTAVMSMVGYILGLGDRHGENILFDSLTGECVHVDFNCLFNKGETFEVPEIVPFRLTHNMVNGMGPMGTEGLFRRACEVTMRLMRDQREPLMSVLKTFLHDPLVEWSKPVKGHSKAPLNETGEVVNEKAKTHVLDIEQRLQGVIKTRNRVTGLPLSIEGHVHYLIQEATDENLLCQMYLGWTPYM

[7] = molecular target: Serine/threonine-protein kinase ATR (Homo sapiens) (UniProt Q13535); experiment: Inhibition of ATR in HU-treated human A2780 cells assessed as inhibition of Chk1 phosphorylation at Ser345 residue by Western blot assay; assay type: cell-based; conditions: dose 0.03-10 µM, DDE = dose-dependent effect
[8] = molecular target: Serine/threonine-protein kinase ATR (Homo sapiens) (UniProt Q13535); experiment: Inhibition of ATR in human A2780 cells assessed as induction of DNA damage incubated for 3 days by DAPI staining based immunofluorescence analysis; assay type: cell-based; conditions: dose 1-10 µM, time 3.0 day, DDE = dose-dependent effect
[9] = molecular target: Serine/threonine-protein kinase mTOR (Homo sapiens, UniProt P42345); experiment: Inhibition of human full length recombinant mTOR in presence of [gamma-33P]ATP incubated for 40 mins by radiometric scintillation counting analysis
FKBP12A/mTOR = FKBP12A/mTOR (Homo sapiens, UniProt P42345+P62942); experiment: Inhibition of human full length recombinant mTOR/FKBP12 in presence of [gamma-33P]ATP incubated for 40 mins by radiometric scintillation counting analysis; assay type: protein-complex assay
Chain of FKBP12A/mTOR (P62942 2-108 limits assumed, other chains not shown): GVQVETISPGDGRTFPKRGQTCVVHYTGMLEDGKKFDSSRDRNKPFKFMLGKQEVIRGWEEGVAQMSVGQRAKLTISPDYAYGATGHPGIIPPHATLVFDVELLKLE

[10] = molecular target: PI3-kinase p110-delta/p85-alpha (Homo sapiens, UniProt O00329); experiment: Inhibition of recombinant human full length PI3K p110delta/p85a using phosphatidylinositol-4, 5-bisphosphate as substrate incubated for 40 mins in presence of [gamma33P]ATP by radiometric scintillation counting analysis; assay type: protein-complex assay
Chain of PI3-kinase p110-delta/p85-alpha (P27986 whole entry, the tested form may be a part): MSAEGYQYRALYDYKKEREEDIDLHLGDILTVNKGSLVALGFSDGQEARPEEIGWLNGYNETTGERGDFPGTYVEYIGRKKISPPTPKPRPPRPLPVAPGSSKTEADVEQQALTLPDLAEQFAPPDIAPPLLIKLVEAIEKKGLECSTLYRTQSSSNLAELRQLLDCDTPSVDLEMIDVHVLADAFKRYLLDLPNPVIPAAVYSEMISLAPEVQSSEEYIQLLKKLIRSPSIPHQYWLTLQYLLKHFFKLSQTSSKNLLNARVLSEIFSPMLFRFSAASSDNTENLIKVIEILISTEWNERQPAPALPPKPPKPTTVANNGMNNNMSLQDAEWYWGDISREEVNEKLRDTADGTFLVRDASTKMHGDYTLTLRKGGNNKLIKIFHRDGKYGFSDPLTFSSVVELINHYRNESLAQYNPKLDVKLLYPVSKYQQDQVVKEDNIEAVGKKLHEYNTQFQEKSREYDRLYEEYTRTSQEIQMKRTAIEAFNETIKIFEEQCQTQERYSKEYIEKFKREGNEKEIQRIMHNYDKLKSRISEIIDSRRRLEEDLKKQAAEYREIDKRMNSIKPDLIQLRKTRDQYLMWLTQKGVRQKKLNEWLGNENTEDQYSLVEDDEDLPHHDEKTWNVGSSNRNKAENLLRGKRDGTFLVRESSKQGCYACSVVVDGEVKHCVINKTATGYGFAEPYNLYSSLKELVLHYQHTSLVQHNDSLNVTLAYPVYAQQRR
Chain of PI3-kinase p110-delta/p85-alpha (O00329 whole entry, the tested form may be a part): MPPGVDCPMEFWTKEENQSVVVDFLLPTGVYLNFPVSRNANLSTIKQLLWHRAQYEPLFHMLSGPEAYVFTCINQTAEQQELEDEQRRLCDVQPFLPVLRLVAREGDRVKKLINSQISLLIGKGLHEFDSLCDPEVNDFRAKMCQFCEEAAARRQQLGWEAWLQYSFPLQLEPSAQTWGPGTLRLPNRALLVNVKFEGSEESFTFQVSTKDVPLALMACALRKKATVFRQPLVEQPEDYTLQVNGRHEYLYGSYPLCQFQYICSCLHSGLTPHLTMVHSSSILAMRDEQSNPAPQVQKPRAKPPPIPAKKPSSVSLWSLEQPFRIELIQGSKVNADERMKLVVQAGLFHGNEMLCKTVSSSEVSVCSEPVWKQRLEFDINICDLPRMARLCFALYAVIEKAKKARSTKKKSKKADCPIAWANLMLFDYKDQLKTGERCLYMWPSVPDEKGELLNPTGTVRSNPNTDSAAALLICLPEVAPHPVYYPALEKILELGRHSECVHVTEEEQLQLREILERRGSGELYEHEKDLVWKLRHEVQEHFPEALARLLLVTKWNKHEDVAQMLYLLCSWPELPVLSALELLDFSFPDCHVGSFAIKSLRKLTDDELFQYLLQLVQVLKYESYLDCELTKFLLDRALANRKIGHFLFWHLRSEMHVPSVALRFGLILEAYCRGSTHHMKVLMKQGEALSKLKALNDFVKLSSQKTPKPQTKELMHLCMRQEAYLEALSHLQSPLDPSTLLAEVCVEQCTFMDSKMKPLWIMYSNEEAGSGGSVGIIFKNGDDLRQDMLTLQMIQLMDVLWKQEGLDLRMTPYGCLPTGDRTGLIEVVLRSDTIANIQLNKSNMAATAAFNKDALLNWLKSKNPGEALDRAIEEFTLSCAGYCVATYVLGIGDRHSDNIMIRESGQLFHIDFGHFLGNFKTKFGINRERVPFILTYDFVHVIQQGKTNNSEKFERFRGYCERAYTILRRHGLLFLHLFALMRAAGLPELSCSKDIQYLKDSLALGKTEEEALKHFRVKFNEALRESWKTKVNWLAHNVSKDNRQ

[11] = molecular target: Phosphatidylinositol 4-phosphate 3-kinase C2 domain-containing subunit alpha (Homo sapiens, UniProt O00443); experiment: Inhibition of human PI3K-C2alpha (299 to ens residues) using phosphatidylinositol-4, 5-bisphosphate as substrate incubated for 40 mins by HTRF assay
[12] = molecular target: Serine/threonine-protein kinase B-raf (Homo sapiens, UniProt P15056); experiment: Inhibition of human recombinant B-Raf (416 to end residues) using myelin basic protein as substrate in presence of [gamma-33P]ATP incubated for 40 mins by radiometric scintillation counting analysis

IC50 [1]: 38 nM
SMILES: C[C@@H]1COCCN1c1nc(-c2c[nH]c3ccccc23)nc2c1CN(C(=O)C(C)(C)C(F)(F)F)C2

IC50 [1]: 891 nM
SMILES: O=S(=O)(C1CC1)N1Cc2nc(-c3c[nH]c4ccccc34)nc(N3CCOCC3)c2C1

IC50 [1]: > 10000 nM
SMILES: O=S(=O)(C1CC1)N1Cc2nc(-c3c[nH]c4ccccc34)nc(N3CC4CC3CO4)c2C1 (centres undefined)

IC50 [1]: 6 nM | IC50 (A2780 [2]): 1190 nM | IC50 (MDA-MB-436): 1290 nM | IC50 (MDA-MB-468): 1820 nM | IC50 (LoVo): 2630 nM | IC50 (SW-620): 3960 nM | IC50 (NCI-H23): 3350 nM
SMILES: C[C@@H]1COCCN1c1nc(-c2c[nH]c3ccccc23)nc2c1CN(C(=O)C1CC1)C2
IC50 (Granta-519): 1630 nM | IC50 (CWR22R): 1450 nM

IC50 [1]: 1390 nM
SMILES: O=S(=O)(C1CC1)N1Cc2nc(-c3c[nH]c4ccccc34)nc(N3C4CCC3COC4)c2C1

IC50 [1]: 26 nM
SMILES: CCC(C)C(=O)N1Cc2nc(-c3c[nH]c4ccccc34)nc(N3CCOC[C@H]3C)c2C1 (some centres undefined)

IC50 [1]: 8360 nM
SMILES: C[C@H](CO)Nc1nc(-c2c[nH]c3ccccc23)nc2c1CN(S(=O)(=O)C1CC1)C2

IC50 [1]: 601 nM
SMILES: C[C@@H]1COCCN1c1nc(-c2c[nH]c3ccccc23)nc2c1CN(C(=O)C1CCNCC1)C2

IC50 [1]: 18 nM
SMILES: C[C@@H]1COCCN1c1nc(-c2c[nH]c3ccccc23)nc2c1CN(S(=O)(=O)N(C)C)C2

IC50 [1]: 2710 nM
SMILES: C[C@@H]1COCCN1c1nc(-c2cnc3[nH]ccc3c2)nc2c1CN(S(=O)(=O)C1CC1)C2

IC50 [1]: 25 nM
SMILES: C[C@@H]1COCCN1c1nc(-c2c[nH]c3ccccc23)nc2c1CN(C(=O)C(C)(C)C)C2

IC50 [1]: 7 nM | IC50 (A2780 [2]): 670 nM | IC50 (MDA-MB-436): 950 nM | IC50 (MDA-MB-468): 1420 nM | IC50 (LoVo): 840 nM | IC50 (SW-620): 2150 nM | IC50 (NCI-H23): 2110 nM | inhibition [6]: Dde | inhibition [7]: Dde | IC50 [9]: 136 nM | IC50 (FKBP12A/mTOR): 125 nM | IC50 [10]: 2150 nM | IC50 [11]: 2720 nM | IC50 [12]: 9440 nM
SMILES: CC(C)S(=O)(=O)N1Cc2nc(-c3c[nH]c4ccccc34)nc(N3CCOC[C@H]3C)c2C1
IC50 (Granta-519): 1020 nM | IC50 (CWR22R): 1340 nM | inhibition (A2780 [3]): Dde | Activity (A2780 [4]): Tde | Activity (A2780 [5]): Dde | inhibition [8]: Dde

IC50 [1]: 53 nM
SMILES: C[C@@H]1COCCN1c1nc(-c2cccc3[nH]ccc23)nc2c1CN(S(=O)(=O)C1CC1)C2

IC50 [1]: 4 nM | IC50 (A2780 [2]): 1350 nM | IC50 (MDA-MB-436): 1880 nM | IC50 (MDA-MB-468): 1740 nM | IC50 (LoVo): 2110 nM | IC50 (SW-620): 3840 nM | IC50 (NCI-H23): 3480 nM
SMILES: C[C@@H]1COCCN1c1nc(-c2c[nH]c3ccccc23)nc2c1CN(S(=O)(=O)C1CC1)C2
IC50 (Granta-519): 1860 nM | IC50 (CWR22R): 2480 nM

IC50 [1]: 10000 nM
SMILES: O=S(=O)(C1CC1)N1Cc2nc(-c3c[nH]c4ccccc34)nc(NC3COC3)c2C1

IC50 [1]: 4950 nM
SMILES: C[C@H]1COCCN1c1nc(-c2c[nH]c3ccccc23)nc2c1CN(S(=O)(=O)C1CC1)C2

IC50 [1]: 10 nM
SMILES: C[C@@H]1COCCN1c1nc(-c2c[nH]c3ccccc23)nc2c1CN(C(=O)C(C)(C)CCl)C2

IC50 [1]: 2470 nM
SMILES: C[C@@H]1COCCN1c1nc(-c2c[nH]c3ncccc23)nc2c1CN(S(=O)(=O)C1CC1)C2

IC50 [1]: > 10000 nM
SMILES: C[C@@H]1CN(c2nc(-c3c[nH]c4ccccc34)nc3c2CN(S(=O)(=O)C2CC2)C3)C[C@H](C)O1

IC50 [1]: > 10000 nM
SMILES: O=S(=O)(C1CC1)N1Cc2nc(-c3c[nH]c4ccccc34)nc(N3C[C@H]4COC[C@H]4C3)c2C1

IC50 [1]: > 10000 nM
SMILES: C[C@@H]1COCCN1c1nc(-c2cc[nH]n2)nc2c1CN(S(=O)(=O)C1CC1)C2

IC50 [1]: 11 nM
SMILES: C[C@@H]1COCCN1c1nc(-c2c[nH]c3ccccc23)nc2c1CN(C(=O)[C@H]1CCCO1)C2

IC50 [1]: 20 nM
SMILES: C[C@@H]1COCCN1c1nc(-c2c[nH]c3ccccc23)nc2c1CN(S(=O)(=O)C1CCCCC1)C2

IC50 [1]: 544 nM
SMILES: O=S(=O)(C1CC1)N1Cc2nc(-c3c[nH]c4ccccc34)nc(N3CC4CCC(C3)O4)c2C1
